Assay results reported in article PMC4955774 (Bioorganic & medicinal chemistry, 2016).
≈ marks a conversion by molar mass, not a printed value. Marks after values point to notes of the source that are not given here.

Columns and labels:
[1] = test system: 13 fungal strains (yeast and filamentous fungi); experiment: In vitro antifungal MIC assay, summary over the whole panel; type: cell-based, Candida and Aspergillus strains; details: summary statement over the 13 strains
[2] = test system: C. albicans ATCC 10231 (strain A); experiment: ROS assay with DCFH-DA dye; type: cell-based, Candida albicans; details: 1 h at 35 °C
[3] = test system: C. albicans ATCC 64124 (strain B); experiment: Antifungal time-kill studies; type: cell-based, Candida albicans
C. albicans ATCC 10231 [4] = details: strain A; MIC-2 for azoles; previously reported; cited from earlier work
C. albicans ATCC 64124 = details: strain B; MIC-2 for azoles; previously reported; cited from earlier work
[5] = test system: C. albicans ATCC MYA-2876(S); details: strain C; MIC-2 for azoles; previously reported; cited from earlier work
[6] = test system: C. albicans ATCC 90819(R); details: strain D; MIC-2 for azoles; previously reported; cited from earlier work
[7] = test system: C. albicans ATCC MYA-2310(S); details: strain E; MIC-2 for azoles; previously reported; cited from earlier work
[8] = test system: C. albicans ATCC MYA-1237(R); details: strain F; MIC-2 for azoles; previously reported; cited from earlier work
[9] = test system: C. albicans ATCC MYA-1003(R); details: strain G; MIC-2 for azoles; previously reported; cited from earlier work
[10] = test system: Aspergillus nidulans ATCC 38163; details: strain L, filamentous fungus, previously reported; cited from earlier work
C. albicans ATCC 10231 [11] = experiment: In vitro antifungal MIC assay, strain A; type: cell-based; details: Candida albicans, ATCC10231, read-out: MIC (MIC-0)
[12] = test system: C. albicans ATCC MYA-2876(S); experiment: In vitro antifungal MIC assay, strain C; type: cell-based; details: Candida albicans, read-out: MIC (MIC-0)
[13] = test system: C. albicans ATCC MYA-2310(S); experiment: In vitro antifungal MIC assay, strain E; type: cell-based; details: Candida albicans, read-out: MIC (MIC-0)
[14] = test system: C. albicans ATCC MYA-1237(R); experiment: In vitro antifungal MIC assay, strain F; type: cell-based; details: Candida albicans, read-out: MIC (MIC-0)
[15] = test system: C. albicans ATCC MYA-1003(R); experiment: In vitro antifungal MIC assay, strain G; type: cell-based; details: Candida albicans, read-out: MIC (MIC-0)
[16] = In vitro cytotoxicity assay, A549; type: cell-based, mammalian; details: human
[17] = In vitro cytotoxicity assay, BEAS-2B; type: cell-based, mammalian; details: human
[18] = 1× and 2× respective MIC values

CCCCCCCCCCCCN1CCN(c2ccc3nc(-c4ccc5nc(-c6ccc(O)cc6)[nH]c5c4)[nH]c3c2)CC1 [Compound 4]
MIC / antifungal activity over all tested fungal strains [1]: no activity | Intracellular ROS production ([2]; 8 and 16 µg/mL): no ROS accumulation

CCOc1ccc(-c2nc3cc(-c4nc5cc(N6CCN(C)CC6)ccc5[nH]4)ccc3[nH]2)cc1 [Compound 9]
Nature of activity in time-kill assay ([3]; 1× MIC): fungistatic | Nature of activity in time-kill assay ([3]; 2× MIC): fungicidal | Intracellular ROS production [2, 18]: significant amount of ROS production

C#CCOc1ccc(-c2nc3ccc(-c4nc5ccc(-c6nc7ccc(N8CCN(C)CC8)cc7[nH]6)cc5[nH]4)cc3[nH]2)cc1 [Compound 18]
MIC / antifungal activity over all tested fungal strains [1]: ≥ 31.2 µg/mL

C#CCOc1ccc(-c2nc3ccc(N4CCN(C)CC4)cc3[nH]2)cc1 [Compound 1]
MIC / antifungal activity over all tested fungal strains [1]: ≥ 31.2 µg/mL

OC(Cn1cncn1)(Cn1cncn1)c1ccc(F)cc1F [FLC, fluconazole]
MIC (MIC-2) (C. albicans ATCC 10231 [4]): 62.5 ^a µg/mL | MIC (MIC-2) (C. albicans ATCC 64124): >125 ^a µg/mL | MIC (MIC-2) [5]: 15.6 ^a µg/mL | MIC (MIC-2) [6]: >125 ^a µg/mL | MIC (MIC-2) [7]: >125 ^a µg/mL | MIC (MIC-2) [8]: 62.5 ^a µg/mL | MIC (MIC-2) [9]: 62.5 ^a µg/mL | MIC (MIC-0) [10]: 62.5 ^a µg/mL

C[C@@H]1[C@H](O)[C@@H](C)/C=C/C=C/C=C/C=C/C=C/C=C/C=C/[C@H](O[C@@H]2O[C@H](C)[C@@H](O)[C@H](N)[C@@H]2O)C[C@@H]2O[C@](O)(C[C@@H](O)C[C@@H](O)[C@H](O)CC[C@@H](O)C[C@@H](O)CC(=O)O[C@H]1C)C[C@H](O)[C@H]2C(=O)O [AmB, amphotericin B]
Nature of activity in time-kill assay ([3]; 1× MIC): fungicidal | Time after which fungal cells were completely killed ([3]; 1× MIC): 9 h

CC[C@@H]([C@H](C)O)n1ncn(-c2ccc(N3CCN(c4ccc(OC[C@@H]5CO[C@@](Cn6cncn6)(c6ccc(F)cc6F)C5)cc4)CC3)cc2)c1=O [POS, posaconazole]
MIC (MIC-2) (C. albicans ATCC 10231 [4]): 0.5 ^a µg/mL | MIC (MIC-2) (C. albicans ATCC 64124): >62.5 ^a µg/mL | MIC (MIC-2) [5]: 7.8 ^a µg/mL | MIC (MIC-2) [6]: 31.2 ^a µg/mL | MIC (MIC-2) [7]: 31.2 ^a µg/mL | MIC (MIC-2) [8]: 15.6 ^a µg/mL | MIC (MIC-2) [9]: 15.6 ^a µg/mL | MIC (MIC-0) [10]: 0.195 ^a µg/mL

CCC(C)n1ncn(-c2ccc(N3CCN(c4ccc(OCC5COC(Cn6cncn6)(c6ccc(Cl)cc6Cl)O5)cc4)CC3)cc2)c1=O (centres unmarked) [ITC, itraconazole]
MIC (MIC-2) (C. albicans ATCC 10231 [4]): 0.5 ^a µg/mL | MIC (MIC-2) (C. albicans ATCC 64124): >62.5 ^a µg/mL | MIC (MIC-2) [5]: 7.8 ^a µg/mL | MIC (MIC-2) [6]: 31.2 ^a µg/mL | MIC (MIC-2) [7]: 31.2 ^a µg/mL | MIC (MIC-2) [8]: 31.2 ^a µg/mL | MIC (MIC-2) [9]: 31.2 ^a µg/mL | MIC (MIC-0) [10]: 0.195 ^a µg/mL

CCCCCN1CCN(c2ccc3nc(-c4ccc5nc(-c6ccc(OCC)cc6)[nH]c5c4)[nH]c3c2)CC1 [Compound 12]
MIC / antifungal activity over all tested fungal strains [1]: inactive

CN1CCN(c2ccc3[nH]c(-c4ccc5[nH]c(-c6ccc(O)cc6)nc5c4)nc3c2)CC1 [Compound 2]
MIC (C. albicans ATCC 10231 [11]): 7.8 to 15.6 µg/mL (≈ 18.4 to 36.7 µM) | MIC [12]: 7.8 to 15.6 µg/mL (≈ 18.4 to 36.7 µM) | MIC [13]: 3.9 to 7.8 µg/mL (≈ 9.19 to 18.4 µM) | MIC [14]: 3.9 to 7.8 µg/mL (≈ 9.19 to 18.4 µM) | MIC [15]: 7.8 to 15.6 µg/mL (≈ 18.4 to 36.7 µM) | Nature of activity in time-kill assay ([3]; 1× MIC): fungistatic | Nature of activity in time-kill assay ([3]; 2× MIC): fungicidal | IC50 at 24 h [16]: ≥ 31.2 µg/mL | IC50 at 24 h [17]: ≥ 31.2 µg/mL | Intracellular ROS production [2, 18]: significant amount of ROS production

CCCN1CCN(c2ccc3nc(-c4ccc5nc(-c6ccc(OCC)cc6)[nH]c5c4)[nH]c3c2)CC1 [Compound 11]
MIC / antifungal activity over all tested fungal strains [1]: inactive

CCCCCCCCCCCCOc1ccc(-c2nc3ccc(-c4nc5ccc(N6CCN(C)CC6)cc5[nH]4)cc3[nH]2)cc1 [Compound 13]
MIC / antifungal activity over all tested fungal strains [1]: complete loss of antifungal activity

C#CCOc1ccc(-c2nc3ccc(-c4nc5ccc(N6CCN(C)CC6)cc5[nH]4)cc3[nH]2)cc1 [Compound 14]
MIC (C. albicans ATCC 10231 [11]): 7.8 to 31.2 µg/mL (≈ 16.9 to 67.5 µM)
